These results are taken from ChEMBL document CHEMBL3272257, “Clonidine and related analogues. Quantitative correlations” (J Med Chem, 1976).

Series [1] in a line: Retardation factor, deltaRm of the compound at pH 13 by TLC analysis. It is filed as physicochemical.
Series [2] can be described thus: Octan-1-ol-aqueous buffer partition coefficient, log P of the compound at 10 to 20 mg at pH 7.4 by UV-spectroscopic analysis. The series is classed as physicochemical.
The species entered for series [3] is Rattus norvegicus. The experiment in a line: Hypotensive activity in rat assessed as change in mean blood pressure relative to control. The series is classed as functional. Further details: concentration or dose not given beside the values.
Series [4] concerns Rattus norvegicus. The experiment in a line: Peripheral adrenergic activity in iv dosed pithed rat assessed as change in mean blood pressure. The series is classed as functional.
A short description of series [5]: Dissociation constant, pKa of the compound in water-ethyl alcohol. It is filed as physicochemical.
Series [6] relates to Rattus norvegicus. The experiment in a line: Toxicity in iv dosed pithed rat. The series is classed as organism-based. Conditions: in vivo.

In series [1], `Cc1cccc(C)c1N=C1NCCN1` returned a deltaRm of 0.42. For the same molecule, the logD in series [2] was -1.65. Further, the Activity in series [3] was <10%. Moreover, in series [4], the pD2 is 7.74. In addition, the pKa in series [5] is 10.5.
The matching figures for `c1ccc(NC2=NCCN2)cc1`: 0, -1.8, <10%, 5.84 and 10.4.
Consider `Clc1cc(Cl)c(N=C2NCCN2)c(Cl)c1`, for which the deltaRm in series [1] is given as 1. Besides, the Activity in series [3] came to 15%. Besides, the pD2 in series [4] was 7.13. Further, the pKa in series [5] turned out to be 7.6.
For `Cc1cc(C)c(N=C2NCCN2)c(C)c1`, the pD2 in series [4] came to 7.8.
Take `Brc1cccc(Br)c1N=C1NCCN1`: the deltaRm in series [1] is recorded as 0.61. The molecule also returned a logD in series [2] of 1.15. Also, the Activity in series [3] came out at 15%. Further, in series [4], the pD2 is 7.28. For the same molecule, the pKa in series [5] worked out at 7.95.
The molecule `CCc1cccc(CC)c1NC1=NCCN1` registered a deltaRm in series [1] of 0.95. The logD in series [2] was -0.84. Also, the Activity in series [3] is reported as >10%. For the same molecule, in series [4], the pD2 was 7.61. This molecule gave a pKa in series [5] of 10.6.
Molecule `Fc1cccc(F)c1N=C1NCCN1` displayed a deltaRm in series [1] of 0.24. Besides, the logD in series [2] was determined as 0.02. Besides, the Activity in series [3] is listed as <10%. In addition, the pD2 in series [4] was found to be 7.23. Besides, the pKa in series [5] is 8.4.
With `Clc1cc(Cl)c(N=C2NCCN2)cc1Cl`, the deltaRm in series [1] amounted to 1.2. This molecule also yielded a logD in series [2] of 1.63. Also, the pKa in series [5] was 7.7.
In series [1], `CC(C)c1cccc(C(C)C)c1N=C1NCCN1` returned a deltaRm of 1.32. In addition, the logD in series [2] was -0.21. For the same molecule, in series [3], the Activity is reported as <10%. Also, in series [4], the pD2 amounted to 5.79. Also, the pKa in series [5] came out at 10.7.
Consider `COc1cc(C)ccc1N=C1NCCN1`, for which, in series [1], the deltaRm is listed as -0.03. For the same molecule, in series [2], the logD is -1.56. For the same molecule, the Activity in series [3] is listed as <10%. In addition, in series [4], the pD2 was found to be 6.58. In series [5], this molecule showed a pKa of 10.6.
The corresponding values for `Cc1ccc(Cl)cc1N=C1NCCN1` are 0.72, -0.3, <10%, 7.64 and 9.5.
The corresponding values for `COc1ccc(OC)c(N=C2NCCN2)c1` are -0.42, -1.78, <10%, 6.98 and 10.2.
As for `Brc1ccc(N=C2NCCN2)cc1`, the deltaRm in series [1] turned out to be 0.58. For the same molecule, in series [2], the logD is -0.5. In addition, the Activity in series [3] is <10%. Also, in series [4], the pD2 is listed as 6.09. Moreover, the pKa in series [5] stood at 9.65.
The matching figures for `COc1cc(OC)c(N=C2NCCN2)cc1Cl`: -0.07, -1.37, <10%, 6.68 and 10.2.
`CCc1ccccc1N=C1NCCN1`: the pD2 in series [4] was determined as 7.55.
For `COc1cc(C)c(N=C2NCCN2)c(C)c1`, the LD50 in series [6] amounted to 54 µM.
In the case of `Cc1cc(O)cc(C)c1N=C1NCCN1`, the pD2 in series [4] is listed as 7.51.
As for `FC(F)(F)c1ccccc1N=C1NCCN1`, in series [2], the logD was determined as 0. The Activity in series [3] is listed as <10%. In addition, the pD2 in series [4] was found to be 6.13. Also, the pKa in series [5] stood at 8.8.
The corresponding values for `Oc1cc(Cl)c(N=C2NCCN2)c(Cl)c1` are -0.4, <10%, 7.37 and 7.95.
As to `Cc1cc(Cl)ccc1N=C1NCCN1`, in series [1], the deltaRm is reported as 0.75. Moreover, the log distribution coefficient (logD) in series [2] is -0.58. For the same molecule, the Activity in series [3] is <10%. In series [4], the pD2 is reported as 7.11. Also, the pKa in series [5] was 9.75.
The matching figures for `Cc1cccc(Cl)c1N=C1NCCN1`: 0.45, -0.4, 15%, 7.74 and 9.2.
The corresponding values for `Cc1ccc(N=C2NCCN2)c(C)c1` are 0.43, -1.46, >10%, 7.74 and 10.7.
In series [1], `Clc1ccc(Cl)c(N=C2NCCN2)c1` displayed a deltaRm of 0.71. In addition, the logD in series [2] is 0.95. In addition, in series [3], the Activity is on record as <10%. In addition, in series [4], the pD2 is on record as 7.65. Besides, in series [5], the pKa came out at 8.
The corresponding values for `Clc1ccc(N=C2NCCN2)c(Cl)c1` are 0.76, 0.69, 15%, 6.71 and 8.65.
The corresponding values for `Clc1cccc(Cl)c1NC1=NCCN1` [CLONIDINE] are 0.38, 0.83, 15%, 7.66 and 8.05.
Take `Cc1ccc(NC2=NCCN2)c(Cl)c1` [TOLONIDINE]: in series [2], the logD is -0.28. Further, the Activity in series [3] stood at 15%. Also, the pD2 in series [4] is 7.08. The molecule further returned a pKa in series [5] of 9.55.
